Test results taken from patent US12240825B2, “Oxexin 1 receptor antagonists” (Heptares Therapeutics Limited, priority 2019, dated 2025).

Key:
Human OX2 receptor [1] = molecular target: T1, Human OX2 receptor (Homo sapiens (Human), UniProt O43614); test: IPone accumulation assay, CHO cells expressing OX2; type: cell-based; settings: antagonism of orexin A (EC80 40 nM)-induced inositol phosphate turnover, read-out: fpKb average OX2 (converted)
Procedure: Generation of CHO stable cell lines expressing the human OX1R and OX2R. Stable cell lines for the human OX1R and OX2R receptors were generated through the transfection of CHO cells using the transfection reagent Genejuice (Novagen number 70967) and cDNA coding for either the human OX1R or OX2R. Cells were cultured in Sigma Nutrient Mixture F-12 Ham media (catalog number N6658) supplemented with 10% heat-inactivated FBS. Forty-eight hours after transfection, cells were harvested and placed under geneticin selection by culturing in Sigma Nutrient Mixture F-12 Ham media supplemented with 10% heat-inactivated FBS and geneticin (ThermoFisher Catalog number: 10131035). Selection of the final stable clone for each receptor was made on the basis of receptor expression, assay signal to noise and robustness though increasing passage. Selected clones for the human OX1R and OX2R were then frozen down into liquid nitrogen using Cell Freezing Medium-DMSO (Sigma-Aldrich catalog number: C6164). IPone accumulation assay. A CHO cell line stably expressing either human OX1 or OX2 receptor was used with the IPone HTRF assay kit (CisBio: Part #62[…]) to measure receptor activation. The assay was optimised to measure the ability (potency; fpKb) of antagonists to reduce agonist (orexin A)-induced inositol phosphate turnover. Briefly, cells were plated onto half area 96-well white walled plates at a density of 12,500 cells/well. Sixteen hours post-plating cell growth media was replaced with antagonist concentration-response curve diluted in stimulation buffer (supplied with the kit). Cells were incubated in a humidified incubator (37° C.) for 30 min before an EC80 challenge concentration ( 20 nM (OX1) and 40 nM (OX2)) of orexin A (Tocris catalogue number 1455). After 30 min stimulation in a humidified incubator (37° C.) the assay was terminated by the addition of detection mixture as per manufacturer's instructions. The concentration of compound which reduced orexin-A stimulated turnover of inositol phosphates by 50% (IC50) was calculated by fitting to a four parameter sigmoidal dose response curve. The IC50 values were converted to fpKB values using the orexin A pEC50 value estimated on each plate as well as the challenge concentration interpolated from the orexin A control curve.

Human OX1 receptor [2] = molecular target: T2, Human OX1 receptor (Homo sapiens (Human), UniProt O43613); test: [3H]-radioligand binding assay, OX1; settings: competition binding, membranes of SF21 cells, Ki by Cheng-Prusoff
T2 sequence (O43613 whole entry): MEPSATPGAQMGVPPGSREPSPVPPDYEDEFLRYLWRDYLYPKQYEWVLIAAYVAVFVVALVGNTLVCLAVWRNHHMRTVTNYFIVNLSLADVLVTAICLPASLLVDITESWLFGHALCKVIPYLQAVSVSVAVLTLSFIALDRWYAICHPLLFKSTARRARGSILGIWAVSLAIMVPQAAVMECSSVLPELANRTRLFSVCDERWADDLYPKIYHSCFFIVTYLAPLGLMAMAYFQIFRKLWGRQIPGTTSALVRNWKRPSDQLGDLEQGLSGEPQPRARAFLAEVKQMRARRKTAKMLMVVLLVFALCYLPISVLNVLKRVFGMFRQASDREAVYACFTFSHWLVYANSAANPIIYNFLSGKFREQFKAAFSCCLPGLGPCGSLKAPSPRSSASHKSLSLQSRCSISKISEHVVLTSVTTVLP
Description: (§1) Cloning, Baculovirus generation, large-scale infection of SF21 cells and membrane preparation. Human OX1 or OX2 receptor were cloned into Invitrogen's (ThermoFisher Scientific, UK) Bac-to-Bac Baculovirus Expression System. P0 baculovirus was generated by transfecting SF9 cells with bacmid DNA using Cellfectin® II transfection reagent (ThermoFisher Scientific, UK, Catalog number 10362-100). Following P0 generation P1 virus was then generated ready for large scale infection and membrane preparation. SF21 cells were grown in expression medium ESF921 (Expression Systems, USA, catalog number 96-001-01) supplemented with 10% heat-inactivated FBS and 1% Pen/Strep and were infected at a cell density of 2.5×10^6 cells/mL and a multiplicity of infection of 1.0 for both human OX1R and OX2R. Incubation was carried out at over 48 h in a shaking incubator set at 27° C. The cell culture was then centrifuged at 2,500 rcf for 10 min at 4° C. The pellets were resuspended in cold PBS supplemented with Roche's Complete EDTA-free protease inhibitor cocktail tablets (Roche Applied Sciences, catalog number 05056489001), 1 mM PMSF and 1 mM EDTA. The resuspended cell paste was then centrifuged at 3,273 rcf for 12 min at 4° C. The supernatant was discarded and the pellet frozen at −80° C. The cell pellet from a 4 L culture was resuspended in buffer containing 50 mM HEPES pH 7.5, 150 mM NaCl, 8 Roche EDTA-Free protease inhibitor cocktail tablets and 1 mM PMSF. The suspension was left stirring at rt for 1 h and then homogenised for 90 s at 9,500 rpm using a VDI 25 (VWR, USA) homogeniser. The cells were then lysed using a Microfluidiser processor M-110L Pneumatic (Microfluidics, USA) at 60 PSI and membranes collected by ultracentrifugation at 204.7 k×g for 1 h. The supernatant was discarded and the pellet was resuspended and homogenised in 90 s at 9,500 rpm in 50 mL (25 mL for each 2 L culture) of buffer containing 50 mM Hepes pH 7.5, 150 mM NaCl, 3 Roche EDTA-free protease inhibitor cocktail tablets and 1 mM PMSF. The resulting membranes were then stored at −80° C.
(§2) [^3H]-radioligand binding assay. After thawing, membrane homogenates were resuspended in the binding buffer (8.5 mM HEPES, pH 7.4, 1.3 mM CaCl2, 1.2 mM MgSO4, 118 mM NaCl, 4.7 mM KCl, 4 mM NaHCO3, 1.2 mM KH2PO4, 11 mM glucose) to a final assay concentration of 6.4 μg (OX1) or 1.4 μg (OX2) protein per well. Saturation isotherms were determined by the addition of various concentrations (0-30 nM) of [^3H]-4-(2,6-difluoro-4-methoxybenzyl)-2-(5,6-dimethoxypyridin-3-yl)-2H-1,2,4-benzothiadiazin-3(4H)-one 1,1-dioxide (Christopher et al, MedChemComm., 2015, 6, 947-955) in a total reaction volume of 250 μL for 90 min at rt. At the end of the incubation, membranes were filtered onto a 96-well GF/B filter pre-incubated with 0.5% polyethylenimine, with a Tomtec cell harvester and washed 5 times with 0.5 mL distilled water. Non-specific binding (NSB) was measured in the presence of 3.33 μM [4-(5-chloro-1,3-benzoxazol-2-yl)-7-methyl-1,4-diazepan-1-yl][5-methyl-2-(2H-1,2,3-triazol-2-yl)phenyl]methanone (Wertz et al, Angew. Chem. Int. Ed., 2011, 50, 11511-11515). Radioactivity on the filter was counted (1 min) on a Microbeta radiometric plate counter (Perkin Elmer) after addition of 50 μL of scintillation fluid (LabLogic: Part #SG-BXX-14). […] IC50 values were derived from the inhibition curve and the equilibrium dissociation constant (Ki) values were calculated using the Cheng-Prusoff equation.

Human OX2 receptor [3] = molecular target: T1, Human OX2 receptor; test: [3H]-radioligand binding assay, OX2; settings: competition binding, membranes of SF21 cells, Ki by Cheng-Prusoff
Description: as §1, §2

Human OX1 receptor [4] = molecular target: T2, Human OX1 receptor; test: IPone accumulation assay, CHO cells expressing OX1; type: cell-based; settings: antagonism of orexin A (EC80 ~20 nM)-induced inositol phosphate turnover, read-out: fpKb average OX1 (converted)
Procedure: Generation of CHO stable cell lines expressing the human OX1R and OX2R. Stable cell lines for the human OX1R and OX2R receptors were generated through the transfection of CHO cells using the transfection reagent Genejuice (Novagen number 70967) and cDNA coding for either the human OX1R or OX2R. Cells were cultured in Sigma Nutrient Mixture F-12 Ham media (catalog number N6658) supplemented with 10% heat-inactivated FBS. Forty-eight hours after transfection, cells were harvested and placed under geneticin selection by culturing in Sigma Nutrient Mixture F-12 Ham media supplemented with 10% heat-inactivated FBS and geneticin (ThermoFisher Catalog number: 10131035). Selection of the final stable clone for each receptor was made on the basis of receptor expression, assay signal to noise and robustness though increasing passage. Selected clones for the human OX1R and OX2R were then frozen down into liquid nitrogen using Cell Freezing Medium-DMSO (Sigma-Aldrich catalog number: C6164).
IPone accumulation assay. A CHO cell line stably expressing either human OX1 or OX2 receptor was used with the IPone HTRF assay kit (CisBio: Part #62IPAPEJ) to measure receptor activation. The assay was optimised to measure the ability (potency; fpKb) of antagonists to reduce agonist (orexin A)-induced inositol phosphate turnover. Briefly, cells were plated onto half area 96-well white walled plates at a density of 12,500 cells/well. Sixteen hours post-plating cell growth media was replaced with antagonist concentration-response curve diluted in stimulation buffer (supplied with the kit). Cells were incubated in a humidified incubator (37° C.) for 30 min before an EC80 challenge concentration (˜20 nM (OX1) and 40 nM (OX2)) of orexin A (Tocris catalogue number 1455). After 30 min stimulation in a humidified incubator (37° C.) the assay was terminated by the addition of detection mixture as per manufacturer's instructions. The concentration of compound which reduced orexin-A stimulated turnover of inositol phosphates by 50% (IC50) was calculated by fitting to a four parameter sigmoidal dose response curve. The IC50 values were converted to fpKB values using the orexin A pEC50 value estimated on each plate as well as the challenge concentration interpolated from the orexin A control curve.

T1 sequence (O43614 whole entry): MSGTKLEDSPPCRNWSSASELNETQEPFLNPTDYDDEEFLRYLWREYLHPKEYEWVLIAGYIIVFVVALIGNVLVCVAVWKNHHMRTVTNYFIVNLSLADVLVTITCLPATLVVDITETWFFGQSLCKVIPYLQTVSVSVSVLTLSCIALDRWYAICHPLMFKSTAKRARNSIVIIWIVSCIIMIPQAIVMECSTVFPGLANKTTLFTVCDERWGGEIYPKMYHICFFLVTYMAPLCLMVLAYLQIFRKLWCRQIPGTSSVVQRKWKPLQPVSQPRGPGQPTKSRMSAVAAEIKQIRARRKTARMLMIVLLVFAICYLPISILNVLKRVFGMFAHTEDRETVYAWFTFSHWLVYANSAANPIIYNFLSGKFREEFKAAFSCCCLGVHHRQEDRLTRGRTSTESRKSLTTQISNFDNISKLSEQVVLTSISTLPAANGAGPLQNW

## CC(=O)Nc1ccc(-c2ncccn2)c(C(=O)N[C@H]2CCC[C@@H]2COc2ccc(F)cc2)c1F [Example 2, 3-acetamido-2-fluoro-N-[(1S,2S)-2-[(4-fluorophenoxy)methyl]cyclopentyl]-6-pyrimidin-2-yl-benzamide]
Human OX2 receptor [1]
  Kb: > 2.51 µM
Human OX1 receptor [2]
  pKi average OX1: 7.7
Human OX2 receptor [3]
  pKi average OX2: 5.6
Human OX1 receptor [4]
  Kb: 0.0501 µM

## Nc1ccc(-n2nccn2)c(C(=O)N[C@H]2CCC[C@@H]2COc2ccc(F)cc2)n1 [Example 4, 6-amino-N-[(1S,2S)-2-[(4-fluorophenoxy)methyl]cyclopentyl]-3-(triazol-2-yl)pyridine-2-carboxamide]
Human OX2 receptor [1]
  Kb: > 1.26 µM
Human OX1 receptor [2]
  pKi average OX1: 8.0
Human OX2 receptor [3]
  pKi average OX2: 5.9
Human OX1 receptor [4]
  Kb: 0.01 µM

## CC(=O)Nc1cc(C(=O)N[C@H]2CCC[C@@H]2COc2ccc(F)cc2)c(-n2nccn2)cn1 [Example 23, 2-acetamido-N-[(1S,2S)-2-[(4-fluorophenoxy)methyl]cyclopentyl]-5-(triazol-2-yl)pyridine-4-carboxamide]
Human OX2 receptor [1]
  Kb: > 0.0631 µM
Human OX1 receptor [2]
  pKi average OX1: 8.9
Human OX2 receptor [3]
  pKi average OX2: 6.5
Human OX1 receptor [4]
  Kb: 0.00316 µM

## CC(=O)Nc1ccc(-c2ncccn2)c(C(=O)N(C)[C@H]2CCC[C@@H]2COc2ccc(F)cc2)n1 [Example 18, 6-acetamido-N-[(1S,2S)-2-[(4-fluorophenoxy)methyl]cyclopentyl]-N-methyl-3-pyrimidin-2-yl-pyridine-2-carboxamide]
Human OX2 receptor [1]
  Kb: > 0.501 µM
Human OX1 receptor [2]
  pKi average OX1: 8.6
Human OX2 receptor [3]
  pKi average OX2: 6.8
Human OX1 receptor [4]
  Kb: 0.000631 µM

## CC(=O)Nc1ccc(-n2nccn2)c(C(=O)N[C@H]2CCC[C@@H]2COc2ccc(F)cn2)n1 [Example 26, 6-acetamido-N-[(1S,2S)-2-[(5-fluoro-2-pyridyl)oxymethyl]cyclopentyl]-3-(triazol-2-yl)pyridine-2-carboxamide]
Human OX2 receptor [1]
  Kb: > 1 µM
Human OX1 receptor [2]
  pKi average OX1: 7.9
Human OX2 receptor [3]
  pKi average OX2: <5.1
Human OX1 receptor [4]
  Kb: 0.316 µM

## CC(=O)Nc1ccc(-n2nccn2)c(C(=O)N[C@H]2CCC[C@@H]2COc2ccc(F)cc2)n1 [Example 3, 6-acetamido-N-[(1S,2S)-2-[(4-fluorophenoxy)methyl]cyclopentyl]-3-(triazol-2-yl)pyridine-2-carboxamide]
Human OX2 receptor [1]
  Kb: 1.26 µM
Human OX1 receptor [2]
  pKi average OX1: 8.3
Human OX2 receptor [3]
  pKi average OX2: 5.4
Human OX1 receptor [4]
  Kb: 0.02 µM

## CC(=O)Nc1cc(F)c(-n2nccn2)c(C(=O)N[C@H]2CCC[C@@H]2COc2ccc(F)cc2)c1 [Example 1, 5-acetamido-3-fluoro-N-[(1S,2S)-2-[(4-fluorophenoxy)methyl]cyclopentyl]-2-(triazol-2-yl)benzamide]
Human OX2 receptor [1]
  Kb: > 0.0631 µM
Human OX1 receptor [2]
  pKi average OX1: 9.0
Human OX2 receptor [3]
  pKi average OX2: 7.3
Human OX1 receptor [4]
  Kb: 0.000794 µM

## CC(=O)Nc1cnc(-n2nccn2)c(C(=O)N[C@H]2CCC[C@@H]2COc2ccc(F)cc2)c1 [Example 25, 5-acetamido-N-[(1S,2S)-2-[(4-fluorophenoxy)methyl]cyclopentyl]-2-(triazol-2-yl)pyridine-3-carboxamide]
Human OX2 receptor [1]
  Kb: > 0.631 µM
Human OX1 receptor [2]
  pKi average OX1: 8.5
Human OX2 receptor [3]
  pKi average OX2: 5.5
Human OX1 receptor [4]
  Kb: 0.00398 µM

## Nc1ccc(-c2ncc(F)cn2)c(C(=O)N[C@H]2CCC[C@@H]2COc2ccc(F)cc2)n1 [Example 22, 6-amino-N-[(1S,2S)-2-[(4-fluorophenoxy)methyl]cyclopentyl]-3-(5-fluoropyrimidin-2-yl)pyridine-2-carboxamide]
Human OX2 receptor [1]
  Kb: > 1 µM
Human OX1 receptor [2]
  pKi average OX1: 8.5
Human OX2 receptor [3]
  pKi average OX2: 6.3
Human OX1 receptor [4]
  Kb: 0.00794 µM

## CC(=O)Nc1ccc(-c2ncc(F)cn2)c(C(=O)N[C@H]2CCC[C@@H]2COc2ccc(F)cc2)n1 [Example 21, 6-acetamido-N-[(1S,2S)-2-[(4-fluorophenoxy)methyl]cyclopentyl]-3-(5-fluoropyrimidin-2-yl)pyridine-2-carboxamide]
Human OX2 receptor [1]
  Kb: > 0.794 µM
Human OX1 receptor [2]
  pKi average OX1: 8.2
Human OX2 receptor [3]
  pKi average OX2: 5.6
Human OX1 receptor [4]
  Kb: 0.02 µM

## CC(=O)Nc1ccc(-n2nccn2)c(C(=O)N[C@H]2CCC[C@@H]2COc2ccc(F)c(F)c2)n1 [Example 9, 6-acetamido-N-[(1S,2S)-2-[(3,4-difluorophenoxy)methyl]cyclopentyl]-3-(triazol-2-yl)pyridine-2-carboxamide]
Human OX2 receptor [1]
  Kb: > 0.2 µM
Human OX1 receptor [2]
  pKi average OX1: 8.2
Human OX2 receptor [3]
  pKi average OX2: 5.9
Human OX1 receptor [4]
  Kb: 0.0251 µM
